In ChEMBL document CHEMBL1201862, “PubChem BioAssay data set” (2004):
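Compound exposure: 48 hours, 5 concentrations, 96-well plates. GI50 = concentration required for 50% inhibition of growth.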 The source made the active and inactive calls. Rule as the data show it: active = GI50 up to about 1.1 µM and inactive = higher.

Experiments:
Assay in all cases: NCI tumour cell line growth inhibition, 48 h
SNB-19 = tested on: SNB-19
SF-268 = tested on: SF-268
NCI-H460 = tested on: NCI-H460
MOLT-4 = tested on: MOLT-4
SR = tested on: SR
OVCAR-3 = tested on: OVCAR-3
RXF 393 = tested on: RXF 393
MDA-N = tested on: MDA-N
CCRF-CEM = tested on: CCRF-CEM
SNB-75 = tested on: SNB-75
Malme-3M = tested on: Malme-3M
HCT-15 = tested on: HCT-15
HCT-116 = tested on: HCT-116
SK-MEL-2 = tested on: SK-MEL-2
M14 = tested on: M14
NCI-H23 = tested on: NCI-H23
SF-295 = tested on: SF-295
MDA-MB-435 = tested on: MDA-MB-435
LOX IMVI = tested on: LOX IMVI

| SMILES | GI50 (SNB-19) | GI50 (SF-268) | GI50 (NCI-H460) | GI50 (MOLT-4) | GI50 (SR) | GI50 (OVCAR-3) | GI50 (RXF 393) | GI50 (MDA-N) | GI50 (CCRF-CEM) | GI50 (SNB-75) | GI50 (Malme-3M) | GI50 (HCT-15) [µM] | GI50 (HCT-116) | GI50 (SK-MEL-2) | GI50 (M14) | GI50 (NCI-H23) | GI50 (SF-295) | GI50 (MDA-MB-435) | GI50 (LOX IMVI) |
| --- | --- | --- | --- | --- | --- | --- | --- | --- | --- | --- | --- | --- | --- | --- | --- | --- | --- | --- | --- |
| O=C1c2ccccc2-c2nc3ccc(O)cc3n21 | > 100 µM (inactive) | > 100 µM (inactive) | > 100 µM (inactive) | > 100 µM (inactive) | > 100 µM (inactive) | > 100 µM (inactive) | > 100 µM (inactive) | > 100 µM (inactive) | > 100 µM (inactive) | 34.1 µM (inactive) | > 100 µM (inactive) | > 100 | > 100 µM (inactive) | > 100 µM (inactive) | > 100 µM (inactive) | > 100 µM (inactive) | > 100 µM (inactive) |  |  |
| CC(=O)Oc1cc(OC(C)=O)c2c(C)cc(=O)oc2c1 | > 100 µM (inactive) | > 100 µM (inactive) |  | > 100 µM (inactive) | > 100 µM (inactive) | > 100 µM (inactive) |  | > 100 µM (inactive) | > 100 µM (inactive) | 66.8 µM (inactive) | > 100 µM (inactive) | > 100 | > 100 µM (inactive) | > 100 µM (inactive) | 87.3 µM (inactive) | > 100 µM (inactive) | > 100 µM (inactive) | > 100 µM (inactive) | > 100 µM (inactive) |
| CCOC(=O)/C=C(\C)Sc1cc(O)c2ccccc2c1O | 14.4 µM (inactive) | 11 µM (inactive) | 19.5 µM (inactive) | 8.05 µM (inactive) | 7.62 µM (inactive) | 28.6 µM (inactive) | 14.9 µM (inactive) |  | 6.64 µM (inactive) | 10.1 µM (inactive) | 9.66 µM (inactive) | 17.4 | 6.47 µM (inactive) | 20.9 µM (inactive) | 10.8 µM (inactive) | 30.4 µM (inactive) | 24.6 µM (inactive) | 2.65 µM (inactive) | 5.37 µM (inactive) |
| O=C(N/N=C/c1ccc(O)cc1)NNCCO | > 100 µM (inactive) |  | > 100 µM (inactive) | > 100 µM (inactive) | > 100 µM (inactive) | > 100 µM (inactive) |  | > 100 µM (inactive) | > 100 µM (inactive) | 50.5 µM (inactive) | > 100 µM (inactive) | > 100 | > 100 µM (inactive) | > 100 µM (inactive) | > 100 µM (inactive) | > 100 µM (inactive) | > 100 µM (inactive) | > 100 µM (inactive) |  |
